Laboratory results taken from ChEMBL document CHEMBL5725873, “Heteroaryl compounds and their use as therapeutic drugs” (2018).

Target: T1, Tyrosine-protein kinase Mer (Homo sapiens, UniProt Q12866)
T1 sequence (Q12866 whole entry): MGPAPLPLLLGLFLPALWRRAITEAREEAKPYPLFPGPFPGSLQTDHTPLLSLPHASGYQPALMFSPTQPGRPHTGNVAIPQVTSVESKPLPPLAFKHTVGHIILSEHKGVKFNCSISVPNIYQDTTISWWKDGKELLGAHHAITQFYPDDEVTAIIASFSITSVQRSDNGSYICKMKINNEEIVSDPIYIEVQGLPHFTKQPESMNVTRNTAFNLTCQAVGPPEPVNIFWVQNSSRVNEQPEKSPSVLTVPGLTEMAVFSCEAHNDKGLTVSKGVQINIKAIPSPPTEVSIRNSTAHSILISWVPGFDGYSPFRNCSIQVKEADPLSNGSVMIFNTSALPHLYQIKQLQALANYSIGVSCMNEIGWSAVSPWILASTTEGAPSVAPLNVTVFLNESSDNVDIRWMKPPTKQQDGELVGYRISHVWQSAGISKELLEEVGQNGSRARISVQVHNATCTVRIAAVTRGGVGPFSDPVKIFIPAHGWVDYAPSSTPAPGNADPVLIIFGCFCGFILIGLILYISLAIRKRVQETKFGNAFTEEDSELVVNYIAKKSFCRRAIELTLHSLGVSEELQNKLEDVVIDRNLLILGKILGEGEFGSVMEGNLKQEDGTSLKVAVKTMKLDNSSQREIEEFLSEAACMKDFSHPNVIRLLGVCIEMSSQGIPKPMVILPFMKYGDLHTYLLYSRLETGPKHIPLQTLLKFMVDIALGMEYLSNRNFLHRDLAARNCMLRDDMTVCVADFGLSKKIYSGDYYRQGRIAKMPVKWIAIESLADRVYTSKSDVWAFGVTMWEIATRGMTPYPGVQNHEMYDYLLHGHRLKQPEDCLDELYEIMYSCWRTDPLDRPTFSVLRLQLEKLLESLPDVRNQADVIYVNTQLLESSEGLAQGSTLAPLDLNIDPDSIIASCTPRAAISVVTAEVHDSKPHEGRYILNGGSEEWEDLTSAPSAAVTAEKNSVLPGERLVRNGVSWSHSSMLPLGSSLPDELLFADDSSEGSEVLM
Assay: TBD: TBD

Structure (SMILES) | IC50 [nM]
CN1CCN(Cc2ccc(-c3ccc(CO[C@H]4CCC[C@@H]4NC(=O)c4cc(-c5ccc(Cl)c(F)c5)cnc4N)cc3)cc2)CC1 | < 10
C[C@@H](CNC(=O)c1cc(-c2cnn(C)c2)cnc1N)OCc1ccc(Cl)c(Cl)c1 | > 1000
